According to publication PMC4425204 (Bioorganic & medicinal chemistry letters, 2014):

Target: FabB (Escherichia coli, UniProt P0A953)
Assay: NMR wLOGSY assay to evaluate FabB binding
Design: species or system E. coli

Sequence of FabB (P0A953 whole entry): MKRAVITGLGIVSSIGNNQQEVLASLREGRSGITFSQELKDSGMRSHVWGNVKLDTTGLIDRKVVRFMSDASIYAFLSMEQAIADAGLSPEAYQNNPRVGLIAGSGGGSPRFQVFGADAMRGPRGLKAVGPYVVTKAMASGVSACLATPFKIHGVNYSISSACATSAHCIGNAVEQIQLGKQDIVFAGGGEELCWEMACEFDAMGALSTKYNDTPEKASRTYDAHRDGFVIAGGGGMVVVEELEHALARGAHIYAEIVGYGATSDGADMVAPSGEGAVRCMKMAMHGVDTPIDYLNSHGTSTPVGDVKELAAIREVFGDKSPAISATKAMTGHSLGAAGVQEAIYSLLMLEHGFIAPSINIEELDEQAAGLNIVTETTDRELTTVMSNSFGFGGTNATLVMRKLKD

O=c1oc2cc(Cl)ccc2n1CN(CC1CCOC1)C1CC1 (stereo not shown) [compound 1]
FabB binding in NMR wLOGSY assay: exhibited binding
